Source: the NIST ThermoML archive (doi:10.1021/je8006138)

How the values were obtained:
[1] = 101 kPa, Liquid; for viscosity: Capillary tube (Ostwald / Ubbelohde) method; for mass density: Pycnometric method
[2] = xn = mol fraction of the nth substance listed; settings: 101 kPa, Liquid; for viscosity: Capillary tube (Ostwald / Ubbelohde) method; for mass density: Pycnometric method

CCCCCC [hexane]
[1]
Settings	mass density [kg/m3]	viscosity [mPa·s]
293.15 K	659.9	0.319
298.15 K	655.3	0.304
303.15 K	650.8	0.29

C1CCCCC1 [cyclohexane] + CCCCC(CC)COP(=O)(OCC(CC)CCCC)OCC(CC)CCCC
[2], x2 = 0
Settings	mass density [kg/m3]	viscosity [mPa·s]
293.15 K	778.6	0.984
298.15 K	773.9	0.903
303.15 K	769.2	0.83

CCCCC(CC)COP(=O)(OCC(CC)CCCC)OCC(CC)CCCC (stereo not drawn) [tris(2-ethylhexyl) phosphate] + CCCCCC
[2]
Settings	mass density, 293.15 K [kg/m3]	mass density, 298.15 K [kg/m3]	mass density, 303.15 K [kg/m3]	viscosity, 293.15 K [mPa·s]	viscosity, 298.15 K [mPa·s]	viscosity, 303.15 K [mPa·s]
x1 = 0.1027	739.4	735.2	730.9	0.638	0.594	0.56
x1 = 0.1999	789.2	785	780.9	1.103	1.019	0.948
x1 = 0.2976	823.2	819	815	1.754	1.608	1.475
x1 = 0.4047	851.5	847.5	843.5	2.753	2.485	2.246
x1 = 0.5005	869.7	865.8	861.9	3.881	3.438	3.053
x1 = 0.5889	883.6	879.6	875.8	5.1	4.479	3.923
x1 = 0.7133	898.9	895.3	891.4	7.34	6.247	5.405
x1 = 0.8032	908.3	904.5	900.8	9.121	7.73	6.583
x1 = 0.8907	916.3	912.6	908.9	11.18	9.353	7.935
x1 = 1	923.8	920.1	916.4	14.09	11.62	9.708

CCCCC(CC)COP(=O)(OCC(CC)CCCC)OCC(CC)CCCC (stereo not drawn) [tris(2-ethylhexyl) phosphate]
[1]
Settings	mass density [kg/m3]	viscosity [mPa·s]
293.15 K	923.8	14.09
298.15 K	920.1	11.62
303.15 K	916.4	9.708
